Reference: ChEMBL document CHEMBL5252515, “Discovery of 6-Amino-2-{[(1S)-1-methylbutyl]oxy}-9-[5-(1-piperidinyl)pentyl]-7,9-dihydro-8H-purin-8-one (GSK2245035), a Highly Potent and Selective Intranasal Toll-Like Receptor 7 Agonist for the Treatment of Asthma” (J Med Chem, 2016)
Activity calls are given as the source filed them. The calls are words filed in the database; no cut-off is given here.

Key:
[1] = biological target: T1, Toll-like receptor 7 (Macaca fascicularis) (UniProt B3Y652); assay: In vivo target occupancy at TLR7 in cynomolgus monkey assessed as fold increase in OAS1 mRNA expression in nasal scrape at 30 ng/kg administered intranasally incubated for 24 hrs by TaqMan analysis (reference value: 1.2); type: functional
T1 sequence (whole entry): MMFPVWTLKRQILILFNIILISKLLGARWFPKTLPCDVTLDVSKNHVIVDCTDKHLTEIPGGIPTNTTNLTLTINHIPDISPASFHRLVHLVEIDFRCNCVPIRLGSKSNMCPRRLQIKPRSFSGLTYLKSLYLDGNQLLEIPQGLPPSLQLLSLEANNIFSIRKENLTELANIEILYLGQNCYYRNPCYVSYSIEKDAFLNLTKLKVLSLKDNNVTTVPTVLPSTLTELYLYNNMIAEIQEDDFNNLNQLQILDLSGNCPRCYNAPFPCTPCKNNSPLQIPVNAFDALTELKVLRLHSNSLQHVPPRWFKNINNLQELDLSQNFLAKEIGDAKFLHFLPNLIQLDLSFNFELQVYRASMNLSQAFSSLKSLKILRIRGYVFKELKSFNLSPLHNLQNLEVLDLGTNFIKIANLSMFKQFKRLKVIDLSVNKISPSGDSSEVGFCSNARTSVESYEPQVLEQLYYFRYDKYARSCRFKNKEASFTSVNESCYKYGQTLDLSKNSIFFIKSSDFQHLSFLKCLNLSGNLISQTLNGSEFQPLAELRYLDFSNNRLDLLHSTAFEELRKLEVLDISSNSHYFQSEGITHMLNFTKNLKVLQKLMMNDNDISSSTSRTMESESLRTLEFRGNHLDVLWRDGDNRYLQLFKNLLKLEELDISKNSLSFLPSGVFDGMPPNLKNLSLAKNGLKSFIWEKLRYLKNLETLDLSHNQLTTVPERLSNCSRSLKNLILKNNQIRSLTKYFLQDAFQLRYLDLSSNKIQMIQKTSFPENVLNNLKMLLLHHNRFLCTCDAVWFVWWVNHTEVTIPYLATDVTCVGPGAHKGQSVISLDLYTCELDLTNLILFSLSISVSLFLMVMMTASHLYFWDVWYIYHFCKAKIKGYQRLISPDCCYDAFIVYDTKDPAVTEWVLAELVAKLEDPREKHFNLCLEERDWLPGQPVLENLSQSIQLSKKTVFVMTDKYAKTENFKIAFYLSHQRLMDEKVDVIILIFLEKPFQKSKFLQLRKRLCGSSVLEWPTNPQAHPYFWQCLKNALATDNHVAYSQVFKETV

[2] = Tmax in rat after intranasal administration; type: ADME; settings: in vivo, inhaled or intranasal
[3] = Toxicity in male rat assessed as NOAEL after 8 weeks; settings: in vivo
[4] = biological target: T2, Toll-like receptor 9 (Homo sapiens) (UniProt Q9NR96); assay: Agonist activity at TLR9 (unknown origin) expressed in human HEK cells upto 50 uM by luciferase reporter assay; type: cell-based
T2 sequence (whole entry): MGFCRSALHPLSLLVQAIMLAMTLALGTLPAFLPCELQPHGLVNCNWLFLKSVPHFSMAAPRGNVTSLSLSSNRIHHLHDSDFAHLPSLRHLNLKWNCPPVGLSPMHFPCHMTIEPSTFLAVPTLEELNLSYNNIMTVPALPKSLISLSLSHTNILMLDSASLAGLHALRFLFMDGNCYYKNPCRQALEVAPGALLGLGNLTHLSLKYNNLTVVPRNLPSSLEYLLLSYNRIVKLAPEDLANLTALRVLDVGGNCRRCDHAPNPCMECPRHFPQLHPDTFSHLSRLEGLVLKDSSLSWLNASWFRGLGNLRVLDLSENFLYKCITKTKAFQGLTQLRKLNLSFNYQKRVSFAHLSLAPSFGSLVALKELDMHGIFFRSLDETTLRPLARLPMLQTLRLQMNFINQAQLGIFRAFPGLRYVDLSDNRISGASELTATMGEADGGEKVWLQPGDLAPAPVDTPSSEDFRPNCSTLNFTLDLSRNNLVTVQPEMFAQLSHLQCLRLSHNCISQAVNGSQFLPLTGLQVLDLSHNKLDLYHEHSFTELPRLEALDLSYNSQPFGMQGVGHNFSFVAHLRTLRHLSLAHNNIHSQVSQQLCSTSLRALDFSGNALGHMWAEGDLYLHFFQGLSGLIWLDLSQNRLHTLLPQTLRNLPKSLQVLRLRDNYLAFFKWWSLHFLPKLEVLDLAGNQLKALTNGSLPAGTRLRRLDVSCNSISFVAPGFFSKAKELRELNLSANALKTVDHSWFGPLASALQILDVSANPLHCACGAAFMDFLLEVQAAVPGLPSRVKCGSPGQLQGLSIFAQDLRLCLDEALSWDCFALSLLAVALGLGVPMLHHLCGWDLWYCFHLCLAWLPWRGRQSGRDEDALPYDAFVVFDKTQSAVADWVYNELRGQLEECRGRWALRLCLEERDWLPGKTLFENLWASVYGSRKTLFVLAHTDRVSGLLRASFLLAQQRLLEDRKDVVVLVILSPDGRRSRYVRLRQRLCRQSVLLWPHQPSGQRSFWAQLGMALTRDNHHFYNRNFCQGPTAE

For `CCC[C@H](C)Oc1nc(N)c2[nH]c(=O)n(CCCCCN3CCCCC3)c2n1` [GSK-2245035], the fold change (FC) [1] was 53.7, the Tmax [2] was ≤ 5 min and the NOAEL at 1344 h [3] was 0.406 mg/kg. The Activity [4] was “inactive”.
